Assay results published in US8795632B2, “Disease animal model for chronic pain” (Astellas Pharma Inc., priority 2008, dated 2014).

Tests used:
[1] = tested on: dopamine, norepinephrine and serotonin in the spinal cord, thalamus and prefrontal cortex; assay: Amounts of dopamine, norepinephrine and serotonin in spinal cord, thalamus and prefrontal cortex after repeated administration of reserpine (HPLC-ECD); type: in vivo, rat
Protocol: Male Sprague-Dawley rats (7 weeks old, Japan SLC, Hamamatsu, Japan) were used as the animal.
A total of 96 rats were divided into 8 test schedules (collection of samples before administration and 1, 3, 5, 7, 10, 14 or 21 days after the final administration) and further divided each of them into a vehicle (0.5% acetic acid aqueous solution) administration group, a reserpine 0.1 mg/kg administration group, a 0.3 mg/kg administration group and a 1 mg/kg administration group, to 3 rats per group. As shown in Example 1, the vehicle or 0.1, 0.3 or 1 mg/kg of reserpine was repeatedly administered to each rat once a day for 3 days, and the brain and spinal cord were quickly collected 1, 3, 5, 7, 10, 14 or 21 days after the final administration. The thalamus and prefrontal cortex were separated from the brain on an ice-cold dish.
Regarding the sampling before administration, samples were collected before beginning of the repeated administration of vehicle or reserpine. The collected samples were quickly frozen and stored at −80° C. until their use in the measurements. On the day of the measurement, tissues of respective samples were subjected to wet weight measurement, homogenized in 0.2 M perchloric acid/0.1 mM EDTA-2Na solution using an ultrasonic homogenizer. After centrifugation at 15,000 g and at 4° C. for 15 minutes, the supernatant was adjusted to pH 3.5 using sodium acetate and filtered using a filter. Amounts of dopamine, norepinephrine and serotonin in these samples were measured using a high performance liquid chromatography (column: SC-50DS 30, 150 mm, Eicom Co., Ltd., Kyoto, Japan, mobile phase composition: 0.1 M sodium acetate buffer, 0.1 M citrate buffer, pH 3.5, 5 mg/l EDTA-2Na, 190 mg/l sodium octane sulfonic acid, 17% methanol) and an electrochemical detector (ECD-300, Eicom Co., Ltd., Kyoto, Japan). The measurement was carried out under conditions of flow rate 0.5 ml/min, applied voltage 750 mV and 25° C. Amounts of dopamine, norepinephrine and serotonin in the samples were quantified by comparing sample peak areas of respective standards measured on the same day of the sample measurement. All of the measured values were expressed as average value±standard error in the graphs, and unit of the measured values was set to ng/g tissue wet weight.
Statistical difference of the measured values between the reserpine administration group and the vehicle administration group in each test schedule was carried out by the two-way analysis of variance and the Bonferroni method. Probability value (P) of less than 5% was judged as statistically significant (P<0.05 was expressed as * in the graphs). In addition, average values of respective groups at each point of time were expressed as percentages of the average values of corresponding vehicle administration groups.

Sprague-Dawley rats = assay: Heat sensitivity (Hargreaves method) after reserpine single administration; type: in vivo, rat; conditions: reserpine 3 mg/kg single s.c.
Protocol: Measurement of the heat sensitivity was carried out by the method of Hargreaves et al. (Hargreaves et al., Pain, 32, 77-88, 1988). A transparent measuring box was put on a glass plate supported with platforms and a rat was put therein and acclimatized. A mobile infrared heat source was arranged under the glass plate and focused on the plantar surface of the right hind paw of the rat. A latency time required for the rat to show a withdrawal reaction of right hind leg from the heat source was measured as a withdrawal latency time and used as the index of heat sensitivity. According to this measuring system, shorter withdrawal latency time represents acceleration of the skin heat sensitivity.
Influences of the reserpine single administration upon the muscle pressure pain threshold value, skin pain sensation threshold value, cold sensitivity and heat sensitivity were examined in accordance with the following protocol. A total of 12 male rats were used. The muscle pressure pain threshold value, skin pain sensation threshold value, cold sensitivity and heat sensitivity before the reserpine treatment (base lines) were measured and then they were divided into a solvent (0.5% acetic acid aqueous solution) group and a reserpine (3 mg/kg) group (the number of animals per group was 6). […]
All of the measured values were expressed as average value±standard error. […]

[2] = reserpine 0.1 mg/kg s.c. once a day for 3 days, 1 day after final administration
[3] = reserpine 0.3 mg/kg s.c. once a day for 3 days, 1 day after final administration
[4] = reserpine 1 mg/kg s.c. once a day for 3 days, 1 day after final administration
[5] = reserpine 1 mg/kg s.c. once a day for 3 days, after 21 days

COC(=O)[C@H]1[C@H]2C[C@@H]3c4[nH]c5cc(OC)ccc5c4CCN3C[C@H]2C[C@@H](OC(=O)c2cc(OC)c(OC)c(OC)c2)[C@@H]1OC [reserpine]
amount of dopamine in the prefrontal cortex, % of the vehicle administration group [1, 2]: 49.1% | amount of dopamine in the spinal cord, % of the vehicle administration group [1, 2]: 46.4% | amount of dopamine in the thalamus, % of the vehicle administration group [1, 2]: 49.2% | amount of norepinephrine in the prefrontal cortex, % of the vehicle administration group [1, 2]: 10.2% | amount of norepinephrine in the spinal cord, % of the vehicle administration group [1, 2]: 19.1% | amount of norepinephrine in the thalamus, % of the vehicle administration group [1, 2]: 43.8% | amount of serotonin in the prefrontal cortex, % of the vehicle administration group [1, 2]: 42.0% | amount of serotonin in the spinal cord, % of the vehicle administration group [1, 2]: 45.4% | amount of serotonin in the thalamus, % of the vehicle administration group [1, 2]: 28.8% | amount of dopamine in the prefrontal cortex, % of the vehicle administration group [1, 3]: 21.4% | amount of dopamine in the spinal cord, % of the vehicle administration group [1, 3]: 26.3% | amount of dopamine in the thalamus, % of the vehicle administration group [1, 3]: 53.2% | amount of norepinephrine in the prefrontal cortex, % of the vehicle administration group [1, 3]: 0.7% | amount of norepinephrine in the spinal cord, % of the vehicle administration group [1, 3]: 2.6% | amount of norepinephrine in the thalamus, % of the vehicle administration group [1, 3]: 6.1% | amount of serotonin in the prefrontal cortex, % of the vehicle administration group [1, 3]: 15.5% | amount of serotonin in the spinal cord, % of the vehicle administration group [1, 3]: 15.7% | amount of serotonin in the thalamus, % of the vehicle administration group [1, 3]: 14.8% | amount of dopamine in the prefrontal cortex, % of the vehicle administration group [1, 4]: 13.4% | amount of dopamine in the spinal cord, % of the vehicle administration group [1, 4]: 18.4% | amount of dopamine in the thalamus, % of the vehicle administration group [1, 4]: 24.5% | amount of norepinephrine in the prefrontal cortex, % of the vehicle administration group [1, 4]: 0.2% | amount of norepinephrine in the spinal cord, % of the vehicle administration group [1, 4]: 0.6% | amount of norepinephrine in the thalamus, % of the vehicle administration group [1, 4]: 1.2% | amount of serotonin in the prefrontal cortex, % of the vehicle administration group [1, 4]: 4.6% | amount of serotonin in the spinal cord, % of the vehicle administration group [1, 4]: 0.1% | amount of serotonin in the thalamus, % of the vehicle administration group [1, 4]: 8.9% | amount of dopamine in the prefrontal cortex, % of the vehicle administration group [1, 5]: 54.9% | amount of dopamine in the spinal cord, % of the vehicle administration group [1, 5]: 70.1% | amount of dopamine in the thalamus, % of the vehicle administration group [1, 5]: 66.5% | amount of norepinephrine in the prefrontal cortex, % of the vehicle administration group [1, 5]: 29.1% | amount of norepinephrine in the spinal cord, % of the vehicle administration group [1, 5]: 59.4% | amount of norepinephrine in the thalamus, % of the vehicle administration group [1, 5]: 46.0% | amount of serotonin in the prefrontal cortex, % of the vehicle administration group [1, 5]: 47.0% | amount of serotonin in the spinal cord, % of the vehicle administration group [1, 5]: 67.8% | amount of serotonin in the thalamus, % of the vehicle administration group [1, 5]: 60.7% | time after administration at which transient acute-phase acceleration of heat sensitivity recovers (Sprague-Dawley rats): 8 h | heat sensitivity: withdrawal latency time (Sprague-Dawley rats; 2 and 4 hours and 2 and 5 days after administration): significantly shortened
